Test results reported in the supplement of paper PMC8837787.

Experiments:
[1] = test system: Saccharomyces cerevisiae ABC16-Green Monster; conditions: 18 h; 30 °C; YPD
Method: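 Growth inhibition of the drug-sensitive S. cerevisiae ABC16-Green Monster strain (16 ABC transporters deleted) in YPD at 30 °C for 18 h. […] dilution series […] in biological replicates; IC50 from OD600 (18 h minus 0 h) fitted by variable-slope nonlinear regression in GraphPad Prism. Library compounds were first screened at 150 µM, and only those with at least 70% inhibition went to dose-response; the rest are marked inactive.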

[2] = test system: Saccharomyces cerevisiae ABC16-Green Monster; experiment: growth inhibition at single dose (up to 150 µM), below the 70% cut-off for dose-response; higher = more potent; conditions: 18 h; 30 °C; YPD
In short: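 Data are given as percent growth inhibition. Log-phase drug-sensitive S. cerevisiae ABC16-Green Monster cells (OD600 0.1–0.2, 200 µl per well in 96-well plates) were treated in biological duplicates with each library compound at a single 150 µM dose, with untreated cultures alongside, and OD600 was measured at 0 h and after 18 h at 30 °C. Compounds falling below 70% in both replicates were not taken to dose-response.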

Structure (SMILES)	IC50 growth inhibition [1] [µM]	growth inhibition at single dose [2] [%]
CN(C)C(=N)N=C(N)N [Metformin]	> 75	
CCN(CC)CCCC(C)Nc1ccnc2cc(Cl)ccc12 (stereo not given) [Chloroquine]	> 75	
CCCCc1ccc(C(=O)Nc2nccc3ccccc23)nc1	54.7	
NC(=O)NO [Hydroxyurea]	> 75	
CN1CCC(NCc2cccc(-c3ccc(S(=O)(=O)NCc4ccccc4)cc3)c2)CC1	50.8	
Nc1ncnc2c1ncn2CC(O)C(O)C(=O)O (stereo not given) [Eritadenine]	> 75	
COC1=CC(C)=CC(C)C(O)C(C)CC(C)=CC=CC(OC)C(C(C)C(O)C(C)C2(O)CC(O)C(C)C(C(C)C)O2)OC1=O (stereo not given) [Bafilomycin A1]	0.164	
Oc1c(I)cc(I)c2cccnc12 [Iodoquinol]	5.5	
OC1=C2C(=Nc3ccccc3SC2c2ccco2)c2ccccc21 (stereo not given) [GNF-Pf-4283]	11	
COc1ccc(C2CC(=O)C3=C(C2)NC(C)=C(C(=O)OC2CCCC2)C3c2ccc([N+](=O)[O-])cc2)cc1OC (stereo not given) [GNF-Pf-5639]	9.8	
CC[P](CC)(CC)=[Au][S][C@H]1O[C@@H](COC(C)=O)[C@H](OC(C)=O)[C@@H](OC(C)=O)[C@@H]1OC(C)=O	28.2	
CC1C=CC=CC=CC=CC=CC=CC=CC(OC2OC(C)C(O)C(N)C2O)CC2OC(O)(CC(O)CC(O)C(O)CCC(O)CC(O)CC(=O)OC(C)C(C)C1O)CC(O)C2C(=O)O (stereo not given) [Amphotericin B]	63.3	
CNCCC(Oc1ccc(C(F)(F)F)cc1)c1ccccc1 (stereo not given) [Fluoxetin]	59.5	
Cc1cc(F)c(C(=O)Nc2cccc(-c3nncn3C(C)C)n2)cc1-n1cnc(C2CC2)c1 [GS-4997]	> 75	
Clc1cccc(C(c2ccc(CN3CCNCC3)cc2)n2ccnc2)c1 (stereo not given)	28.7	
O=C(c1c[nH]c(-c2ccnc(N3CCCC3)c2)c1)c1ccccc1O	60.6	
CC1COC(Cn2cncn2)(c2ccc(Oc3ccc(Cl)cc3)cc2Cl)O1 (stereo not given) [Difenoconazole]	3.17	
C=C1CCC(O)CC1=CC=C1CCCC2(C)C1CCC2C(C)CCCC(C)(C)O (stereo not given) [Calcifediol]	> 150	
CNS(=O)(=O)c1ccc(C(=O)Nc2ccc(Nc3ccccc3)cc2)o1	92.5	
C=CCn1c(C)cc(C(=O)CSc2nc3ccccc3o2)c1C	11.2	
CON=C(C(=O)OC)c1ccccc1CON=C(C)c1cccc(C(F)(F)F)c1 [Trifloxystrobin]	> 75	
COc1cccc(-n2nnnc2S(C)(=O)=O)c1	53.8	
O=C(Nc1ccc([N+](=O)[O-])cc1Cl)c1cc(Cl)ccc1O [Niclosamide]	1.53	
CCS(=O)(=O)N1Cc2ccccc2CC1C(=O)Nc1nc2ccc(F)cc2s1 (stereo not given)	74	
CC[C@@]1(O)C[C@H](O[C@H]2C[C@H](N(C)C)[C@H](O[C@H]3C[C@H](O)[C@H](O[C@H]4CCC(=O)[C@H](C)O4)[C@H](C)O3)[C@H](C)O2)c2c(cc3c(c2O)C(=O)c2c(O)cccc2C3=O)[C@H]1C(=O)OC [Aclarubicin]	4.79	
Cc1nc(C(=N)NOC(=O)c2c(-c3c(Cl)cccc3Cl)noc2C)cs1	21.2	
CCCC(=O)NC(c1ccc(Cl)cc1)c1ccc2cccnc2c1O (stereo not given) [GNF-Pf-3257]	55.9	

Structure (SMILES)	IC50 growth inhibition [1] [µM]	growth inhibition at single dose [2] [%]
COc1ccc(C2CC(c3cccs3)=NN2C(=O)c2ccco2)cc1OC (stereo not given)	83.6	
CCOc1ccc(Oc2ccc(S(=O)(=O)NC(C)c3ccncc3)cc2)cc1 (stereo not given)	51.1	
O=C(Nc1nc(-c2ccccn2)cs1)C1CC1c1ccccc1F (stereo not given)	6.32	
CC(C)c1ccc(C2C3CCc4ccccc4C3=NN2CCO)cc1 (stereo not given)	49.9	
Cc1cc(C(=O)ONC(=N)c2ccccc2)nn1C(C)(C)C	63.5	
O=C(NCCc1ccccc1)c1cc(-c2cccnc2)cnc1NCC1CC1	15.9	
CCOC(=O)NC(=O)c1ccsc1NC(=O)c1nc2ccccc2s1	34.6	
Cc1cc(NC(C)C)n2ncc(-c3ccc(F)cc3)c2n1	90.7	
O=C(c1ccco1)N(CCCn1ccnc1)c1nc2c(Cl)cccc2s1	40.8	
Cc1cc(Nc2cccc(F)c2)nc(NCc2ccccc2)n1	21.9	
O=C([C@@H](c1ccc(Cl)cc1)c1cccnc1)N1CCN(c2ccc(C(F)(F)F)cc2)CC1	50	
CCN(CC)S(=O)(=O)c1ccc(C(=O)Nc2cc(C)nn2-c2nc(C)c(C)c(=O)[nH]2)cc1	68.4	
CC(C(=O)O)c1ccc2c(c1)[nH]c1ccc(Cl)cc12 (stereo not given) [Carprofen]	> 75	
CC(Oc1ccc(Cl)cc1Cl)c1nc(-c2ccc(NC(=O)c3ccco3)cc2)no1 (stereo not given) [GNF-Pf-3333]	2.8	
COC1=C2CC(C)CC(OC)C(O)C(C)C=C(C)C(OC(N)=O)C(OC)C=CC=C(C)C(=O)NC(=CC1=O)C2=O (stereo not given) [Geldanamycin]	> 75	
Cc1nn2c(=O)cc(-c3ccccc3)[nH]c2c1-c1ccc(F)cc1	39	
COC=C(C(=O)OC)c1ccccc1Oc1cc(Oc2ccccc2C#N)ncn1 [Azoxystrobin]	> 75	
Cc1ccc(Oc2ccc(NC(=O)CNc3ccccc3N3CCCC3=O)cc2)cc1	31.5	
COc1ccc(CN2CCN(C(c3ccc(F)cc3)c3ccc(F)cc3)CC2)c(OC)c1OC [Lomerizine]	14.2	
OCCNc1nc(Nc2ccc(Cl)c(Cl)c2)nc2ccccc12	14	
Cc1c(C(=O)Nc2ccccc2O)cnn1-c1cccc(C(F)(F)F)c1	23.9	
c1ccc(CSc2scnc2[P+](c2ccccc2)(c2ccccc2)c2ccccc2)cc1 [GNF-Pf-238]	4.06	
COc1ccc2sc(N(Cc3cccnc3)C(=O)c3ccc(C#N)cc3)nc2c1	3.85	
CC(=O)N(C1=C(N2CCOCC2)C(=O)c2ccccc2C1=O)c1cccc(Cl)c1 [GNF-Pf-2288]	41.7	
CC(C)c1ccc(/C=C2\CCc3c2nc2ccccc2c3C(=O)O)cc1	19.9	
CSc1ccccc1C(=O)Nc1nc(-c2ccccn2)cs1	10.8	
O=C(Nc1ccc2c(c1)B(O)OC2)c1ccccc1C(F)(F)F	1.72	

Structure (SMILES)	IC50 growth inhibition [1] [µM]	growth inhibition at single dose [2] [%]
COCCNCC(O)Cn1c2ccc(Cl)cc2c2cc(Cl)ccc21 (stereo not given)	11	
O=C(NC1CC1)c1ccc(N2CCOc3ccc(Cl)cc32)s1	32.6	
N=C(N)c1ccc(OCCCCCOc2ccc(C(=N)N)cc2)cc1	83.8	
OCCN1CCN(CCCN2c3ccccc3Sc3ccc(C(F)(F)F)cc32)CC1 [Fluphenazine]	30.1	
OCCc1ccc(Nc2nccc(-c3nnc4ccccn34)n2)cc1	43.9	
O=C1NC(=O)C(c2cnc3ccccn23)=C1c1cn2c3c(cc(F)cc13)CN(C(=O)N1CCCCC1)CC2	> 75	
c1ccc(Oc2ccc(-c3cc(C4CCOCC4)[nH]n3)cc2)cc1	55.6	
COc1cc(N2CCC(N3CCN(C)CC3)CC2)ccc1Nc1ncc(Cl)c(Nc2ccccc2P(C)(C)=O)n1 [Brigatinib]	> 75	
Cc1cc(Nc2ccc(OCc3ccccc3)cc2)nc2cc(O)ccc12	2.38	
CC1(COc2ccc(N3CCC(Oc4ccc(OC(F)(F)F)cc4)CC3)cc2)Cn2cc([N+](=O)[O-])nc2O1 (stereo not given) [Delamanid]	> 75	
CNC1CC2OC(C)(C1OC)n1c3ccccc3c3c4c(c5c6ccccc6n2c5c31)C(=O)NC4 (stereo not given) [Staurosporine]	0.206	
O=C(O)[C@]1(Cc2cccc(Nc3nccs3)n2)CC[C@@H](Oc2cccc(Cl)c2F)CC1 [MK-5108]	> 75	
Cc1ccc(S(=O)(=O)Nc2cccc3ncccc23)s1		< 70
COc1ccc(S(=O)(=O)NN(C)c2nc(C(F)(F)F)nc3ccccc23)cc1		< 70
CN1CCN(S(=O)(=O)c2ccc(-c3ccc4c(Nc5ccc6nn[nH]c6c5)ccnc4c3)cc2)CC1		< 70
CN(C)c1ccc(CNc2ncnc3ccccc23)cc1		< 70
COc1ccc(OC(C)C(=O)Nc2ccc(Cl)cc2C)cc1 (stereo not given)		< 70
CN1N=C2c3ccccc3CCC2C1c1ccc(C(F)(F)F)cc1 (stereo not given)		< 70
CCSc1nccc(-c2ccc3c(c2)CCC(C)(C)O3)n1		< 70
COc1cc(SC)ccc1C(=O)N1CCCC(C)C1 (stereo not given)		< 70
Cc1ccc(Cl)cc1N1CCN(CCCNC(=O)C2CCN(c3nc4ccccc4[nH]3)CC2)CC1		< 70
N#Cc1ccc(-c2cnc(N)c(-c3ccc(C(N)=O)cc3)n2)cc1		< 70
CCOC(=O)CC(=O)CSc1nnc(-c2ccccc2Cl)n1-c1ccccc1F		< 70
COc1cc(CN2CCC3(C=Cc4ccccc43)CC2)cc2c1OCO2		< 70
COc1cccc(C2(C)Nc3ccccc3-c3nc4ccccc4n32)c1 (stereo not given)		< 70
CC(C)(CN)c1nc(-c2ccc(Cl)c(O)c2)c(-c2ccnc(N)n2)[nH]1		< 70
